# Results as given in ChEMBL document CHEMBL1201862, “PubChem BioAssay data set” (2004).
#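 Compound exposure: 48 hours, 5 concentrations, 96-well plates. The concentration for 50% growth inhibition is given as GI50.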 The source made the active and inactive calls. No stated cut-off is given here; in the data, active = GI50 up to about 1.1 µM and inactive = higher.
# Experiments:
# Assay in all cases: NCI tumour cell line growth inhibition, 48 h
# [1] = tested on: A498
# [2] = tested on: DMS-273
# [3] = tested on: HCT-116
# [4] = tested on: HL-60
# [5] = tested on: IGROV-1
# [6] = tested on: MOLT-4
# [7] = tested on: NCI-H226
# [8] = tested on: NCI-H522
# [9] = tested on: RPMI-8226
# [10] = tested on: RXF 393
# [11] = tested on: SF-268
# [12] = tested on: SK-MEL-28
# [13] = tested on: SK-MEL-2
# [14] = tested on: SK-OV-3
# [15] = tested on: SN12C
# [16] = tested on: SNB-19
# [17] = tested on: SW-620
# [18] = tested on: U-251
# [19] = tested on: UO-31
# [20] = tested on: MDA-N
SMILES,GI50 [1],GI50 [2],GI50 [3],GI50 [4],GI50 [5],GI50 [6],GI50 [7],GI50 [8],GI50 [9],GI50 [10],GI50 [11],GI50 [12],GI50 [13],GI50 [14],GI50 [15],GI50 [16],GI50 [17],GI50 [18],GI50 [19],GI50 [20]
COc1cc2c(cc1OC)c1c(OC)c(OC)cc3c1c1c2sc(=S)n1CC3,> 100 µM (inactive),53.1 µM (inactive),97.9 µM (inactive),26.9 µM (inactive),> 100 µM (inactive),30.7 µM (inactive),> 100 µM (inactive),17.4 µM (inactive),32.1 µM (inactive),89.1 µM (inactive),28.7 µM (inactive),46.9 µM (inactive),> 100 µM (inactive),> 100 µM (inactive),64.6 µM (inactive),67.1 µM (inactive),51.1 µM (inactive),66.5 µM (inactive),> 100 µM (inactive),
COC(=O)C(/C(=N\O)C(=O)Nc1ccc(Br)cc1)c1nc2ccccc2nc1O (centres undefined),61 µM (inactive),31.1 µM (inactive),55.8 µM (inactive),21.8 µM (inactive),19 µM (inactive),26.1 µM (inactive),29 µM (inactive),17.1 µM (inactive),26.9 µM (inactive),36.7 µM (inactive),39.2 µM (inactive),36.7 µM (inactive),23 µM (inactive),> 100 µM (inactive),35.8 µM (inactive),78.2 µM (inactive),,34 µM (inactive),> 100 µM (inactive),
O=C(CC1(O)C(=O)Nc2c(Cl)cc(Cl)cc21)c1ccc(Br)cc1Br (centres undefined),22.1 µM (inactive),7.05 µM (inactive),4.31 µM (inactive),1.04 µM (active),16.6 µM (inactive),1.32 µM (inactive),19 µM (inactive),2.89 µM (inactive),2.75 µM (inactive),11.7 µM (inactive),8.17 µM (inactive),14.3 µM (inactive),15.2 µM (inactive),21.5 µM (inactive),13.1 µM (inactive),17.2 µM (inactive),3.3 µM (inactive),13.1 µM (inactive),16 µM (inactive),7.57 µM (inactive)
CCC(=O)C12OC3OC(C)(C)OC3C1OC(C)(C)O2 (centres undefined),> 100 µM (inactive),> 100 µM (inactive),> 100 µM (inactive),> 100 µM (inactive),> 100 µM (inactive),> 100 µM (inactive),> 100 µM (inactive),> 100 µM (inactive),,> 100 µM (inactive),> 100 µM (inactive),> 100 µM (inactive),> 100 µM (inactive),> 100 µM (inactive),> 100 µM (inactive),> 100 µM (inactive),> 100 µM (inactive),> 100 µM (inactive),> 100 µM (inactive),
COc1ccc(NC(=O)c2cc(OC)c(OC)c(OC)c2)cc1,43.6 µM (inactive),29.1 µM (inactive),36.7 µM (inactive),22.2 µM (inactive),66.1 µM (inactive),34.3 µM (inactive),> 78.3 µM (inactive),30.2 µM (inactive),39.5 µM (inactive),31.3 µM (inactive),> 56.4 µM (inactive),29 µM (inactive),21.8 µM (inactive),49.8 µM (inactive),55 µM (inactive),> 100 µM (inactive),39.8 µM (inactive),39.6 µM (inactive),64.1 µM (inactive),
C=C(C)C(=O)OC1CC2=CC(CC3(C)OC3C3OC(=O)C(=C)C13)OC2=O (centres undefined),16.6 µM (inactive),12.9 µM (inactive),5.01 µM (inactive),1.12 µM (active),19.3 µM (inactive),1.84 µM (inactive),22.2 µM (inactive),1.92 µM (inactive),,2.9 µM (inactive),20.7 µM (inactive),12.3 µM (inactive),12.9 µM (inactive),18.8 µM (inactive),13.7 µM (inactive),18.5 µM (inactive),2.24 µM (inactive),17.4 µM (inactive),13.1 µM (inactive),> 10 µM (inactive)
O=C1CCCC1NC(=O)C(F)(F)F (centres undefined),> 100 µM (inactive),> 100 µM (inactive),> 100 µM (inactive),> 100 µM (inactive),> 100 µM (inactive),> 100 µM (inactive),> 100 µM (inactive),> 100 µM (inactive),,> 100 µM (inactive),> 100 µM (inactive),> 100 µM (inactive),> 100 µM (inactive),> 100 µM (inactive),> 100 µM (inactive),> 100 µM (inactive),> 100 µM (inactive),> 100 µM (inactive),> 100 µM (inactive),
C#CC1/C(=C\C(=O)OC)CCCC1O (centres undefined),> 100 µM (inactive),> 100 µM (inactive),> 100 µM (inactive),> 100 µM (inactive),> 100 µM (inactive),> 100 µM (inactive),> 100 µM (inactive),> 100 µM (inactive),> 100 µM (inactive),> 100 µM (inactive),> 100 µM (inactive),,> 100 µM (inactive),> 100 µM (inactive),> 100 µM (inactive),> 100 µM (inactive),> 100 µM (inactive),> 100 µM (inactive),> 100 µM (inactive),
O=C(O)CN(c1ccccc1)S(=O)(=O)c1ccccc1[N+](=O)[O-],> 100 µM (inactive),> 100 µM (inactive),,> 100 µM (inactive),> 100 µM (inactive),> 100 µM (inactive),> 100 µM (inactive),> 100 µM (inactive),> 100 µM (inactive),> 100 µM (inactive),> 100 µM (inactive),> 100 µM (inactive),> 100 µM (inactive),> 100 µM (inactive),> 100 µM (inactive),> 100 µM (inactive),> 100 µM (inactive),> 100 µM (inactive),> 100 µM (inactive),
CCCN(CCCCC(NC(C)=O)C(=O)NCc1ccccc1)C(=O)N(CCCl)N=O (centres undefined),> 86.9 µM (inactive),72.6 µM (inactive),60.3 µM (inactive),22.3 µM (inactive),> 92.3 µM (inactive),36.3 µM (inactive),> 77.8 µM (inactive),> 82.2 µM (inactive),98.2 µM (inactive),66.1 µM (inactive),9.46 µM (inactive),> 100 µM (inactive),> 100 µM (inactive),> 100 µM (inactive),58.3 µM (inactive),31.9 µM (inactive),> 97.1 µM (inactive),15.8 µM (inactive),84.1 µM (inactive),> 100 µM (inactive)
COc1cc(OC)c2c(=O)c3c([N+](=O)[O-])cccc3n(C)c2c1,> 100 µM (inactive),> 100 µM (inactive),> 100 µM (inactive),> 100 µM (inactive),> 100 µM (inactive),> 100 µM (inactive),> 100 µM (inactive),> 100 µM (inactive),> 100 µM (inactive),> 100 µM (inactive),> 100 µM (inactive),> 100 µM (inactive),> 100 µM (inactive),> 100 µM (inactive),> 100 µM (inactive),> 100 µM (inactive),> 100 µM (inactive),94.8 µM (inactive),> 100 µM (inactive),
Oc1cc(-c2cccc(F)c2)nc2cc3c(cc12)OCO3,0.157 µM (active),0.349 µM (active),0.0405 µM (active),0.0313 µM (active),0.102 µM (active),0.136 µM (active),,0.029 µM (active),0.0581 µM (active),0.0546 µM (active),0.115 µM (active),0.0439 µM (active),0.0308 µM (active),0.0698 µM (active),0.129 µM (active),0.124 µM (active),0.0356 µM (active),0.0757 µM (active),0.124 µM (active),0.0111 µM (active)
CC1=C(C(=O)NCc2ccccc2)C(c2ccccc2O)C(C(=O)NCc2ccccc2)=C(C)N1,19 µM (inactive),14.6 µM (inactive),14.4 µM (inactive),17.3 µM (inactive),19.5 µM (inactive),31.3 µM (inactive),16.6 µM (inactive),16.5 µM (inactive),29.6 µM (inactive),17.9 µM (inactive),22.9 µM (inactive),18 µM (inactive),15.4 µM (inactive),26.1 µM (inactive),17.1 µM (inactive),19.2 µM (inactive),17.7 µM (inactive),15.5 µM (inactive),16.7 µM (inactive),
